The values below come from the RepoRT retention time repository.

The data set in a line: Agilent ZORBAX 300 SB-C18, 150 × 1 mm, 3.5 µm; A: water + 0.01% heptafluorobutyric acid; B: acetonitrile + 0.01% heptafluorobutyric acid; gradient (min/%B) 0/0 100/90. As to conditions: stereoisomer not certain.
As to `CCCCCCCCCCCC[N+](C)(C)CCOc1ccccc1`, the LC retention time stood at 16.6 min.
As for `CC(CCc1ccccc1)NCC(O)c1ccc(O)c(C(N)=O)c1` (stereo not given), the figure is 10 min.
Next, `CCOc1ccccc1CNC(N)=O`: 9.32 min; `O=C(C1c2ccccc2Oc2ccccc21)N1CCCc2ccccc21`: 17.8 min; `CCc1ccc(C=NNC(=O)C[n+]2ccccc2)cc1`: 9.72 min.
Turning to `c1nc2c(ccc3[nH]cnc32)[nH]1`, the LC retention time worked out at 6.84 min.
As for `O=c1[nH]c2ccccc2n1CCOc1ccccc1`, the figure is 12.2 min; as for `CCOC(=O)CNc1ccccc1`, 12.4 min; as for `NCCCCCCN`, 6.78 min.
Turning to `c1coc(C2NCCc3ccccc32)c1` (stereo not given), the LC retention time was found to be 8.65 min.
Next, `Cc1nc(C)c(C)nc1C`: 7.72 min.
As for `Cc1ccc(-c2ccc(CCC(=O)O)n2CC(=O)O)cc1`, the figure is 11.5 min; as for `CC(CCc1ccccc1)NCc1ccco1` (stereo not given), 9.89 min.
As for `COc1ccc(NC(=O)c2cc3ccccc3oc2=N)cc1`, the figure is 10.1 min; as for `CCn1c(C)c(C(C)=O)c(C(C)=O)c1C`, 9.56 min; as for `Cc1cccc(C)c1NC(=S)Nc1ccccc1`, 13.1 min.
As for `NCCCCCCNCCCCCCN`, the LC retention time was determined as 7.37 min.
On to `O=C(O)c1ccc(=O)[nH]c1`, for which the LC retention time was determined as 4.42 min.
As for `CCN(CC)CCNc1cccc2ccccc12`, the figure is 10.1 min; as for `COC(=O)Cc1ccc(N)cc1N`, 7.24 min.
Turning to `Cc1ccc(C(=O)C=Cc2ccco2)cc1`, the LC retention time turned out to be 15.1 min.
Next, `CCNC(=S)NNC(=S)NCc1ccccc1`: 10.9 min; `CN(CCO)C(=O)Nc1ccccc1`: 7.92 min; `CC(C)c1ccc(C=C2Nc3ccccc3C2=O)cc1`: 16.9 min.
As to `CCCC(=O)Nc1cccc(C(=O)Nc2ccc(C(=O)O)cc2)c1`, the LC retention time came out at 10.5 min.
As for `O=C(CCC1CCCC1)N1CCN(C(=O)COc2ccccc2)CC1`, the figure is 13.7 min.
Next, `Cc1cncc(C)n1`: 7.44 min; `COc1ccc2cnn(-c3ccccc3)c(=O)c2c1OC`: 11.5 min.
`Nc1ncc2c(n1)CCC2`: the LC retention time amounted to 6.96 min.
As for `O=P(O)(O)CN(CP(=O)(O)O)CP(=O)(O)O`, the figure is 1.08 min.
Next, `Cc1ccsc1CNC(C)c1ccccc1` (stereo not given): 9.76 min.
Consider `O=C(CCCN1C(=O)c2ccccc2C1=O)OCc1ccccc1`, for which the LC retention time was 15.1 min.
As for `CCc1ccc2c(c1)c(C=O)c(C)n2C`, the figure is 12.9 min.
Next, `NCCCN1CCc2ccccc21`: 8.54 min.
As for `CC1(C)CC(NC(=O)NC2CCCCC2)CC(C)(C)N1`, the figure is 8.78 min; as for `Cc1cnc[nH]1`, 5.66 min; as for `CC1=C(C(=O)c2ccccc2)CC(C(=O)c2ccccc2)=C(C)N1`, 13.2 min.
As to `CCOC(=O)c1[nH]c(C)cc1C`, the LC retention time amounted to 12.5 min.
For the molecule `C=CCN1CCC23CCCCC2C1Cc1ccc(O)cc13` (stereo not given), the LC retention time is 9.82 min.
As for `Cn1c2c(c(=O)n(C)c1=O)C1c3ccccc3OCC1C(C)(C)O2` (stereo not given), the figure is 13.2 min; as for `Cc1ccc(-c2cc(C(=O)O)c3ccccc3n2)cc1C`, 13.3 min.
Next, `CCN1CC(CCN2CCOCC2)C(c2ccccc2)(c2ccccc2)C1=O` (stereo not given): 9.72 min; `Cc1cccc(CN)c1`: 7.91 min.
Next, `O=C(NCCCCc1ccccc1)c1ccc2ccccc2n1`: 17.2 min; `O=C1C(=Cc2cccs2)CCCC1=Cc1cccs1`: 18.5 min.
As for `CC(=O)Nc1ccccn1`, the LC retention time was 6.5 min.
Next, `CN(C)C(=O)c1ccc(N=CNc2ccc(C(=O)N(C)C)cc2)cc1`: 9.51 min.
For `CC1CNC(C)CN1` (stereo not given), the LC retention time came to 6.62 min.
Consider `CC(C)=NNc1nccc2ccccc12`, for which the LC retention time was found to be 10.7 min.
Next, `O=c1c2ccccc2ncn1Cc1ccncc1`: 8.03 min; `O=C(Nc1cccnc1)c1ccc(=O)[nH]n1`: 6.84 min; `CN(C)CCCN1c2ccccc2Sc2ccccc21`: 11.3 min.
As for `Cc1ccc(-c2noc(-c3ccc(C)cc3)c2C)cc1`, the figure is 19.3 min; as for `NC1CCc2ccccc21` (stereo not given), 7.85 min.
Next, `O=c1c(Cc2ccccc2)c(O)c2ccccc2n1Cc1ccccc1`: 15.2 min.
As to `NCc1ccc2[nH]c(=O)[nH]c2c1`, the LC retention time was determined as 6.29 min.
As for `C=Cc1ccccn1`, the figure is 6.97 min; as for `NCCCCCCCCN`, 7.2 min.
Next, `O=Cc1ccc2cccnc2c1`: 8.85 min; `O=C(OCC(c1ccccc1)c1ccccc1)c1cccnc1`: 15.9 min; `Cc1cccc(-c2nnc(-c3ccccc3C)o2)c1`: 17.1 min.
As for `COC(=O)c1ccc2[nH]c3c(c2c1)CCCC3`, the figure is 14.8 min; as for `Cc1ccc(-c2ccccc2)nc1C`, 8.93 min.
As for `CCOc1cc(C(=O)Nc2ccc(OC)c(OC)c2)cc(OCC)c1OCC`, the LC retention time was determined as 14.4 min.
Take `c1ccc(N=c2scc(-c3ccccc3)n2-c2ccccc2)cc1`: the LC retention time came out at 12.4 min.
Next, `Oc1ccc2c3c1OC1C(O)CCC4(O)C(C2)N(CC2CCC2)CCC314` (stereo not given): 8.75 min.
Next, `CC(=O)C1C(=O)C=C(c2ccco2)CC1c1ccco1` (stereo not given): 13.2 min; `CCOC(=O)c1ccc(NC(=O)C(c2ccccc2)c2ccccc2)cc1`: 16.9 min; `CC(C)c1ccc(-c2cc(-c3ccccc3)c3c(ccc4ncccc43)n2)cc1`: 20.4 min.
As for `O=C(O)CN=C1NC2(CCCCC2)Cc2ccccc21`, the LC retention time was found to be 9.36 min.
Next, `CNCCCn1c(=O)[nH]c2ccccc21`: 7.64 min; `Cc1cccc(-c2nc(=S)[nH][nH]2)c1`: 9.33 min.
In the case of `COc1cccc(C2C3=C(CC(C)(C)CC3=O)OC3=C2C(=O)CC(C)(C)C3)c1OC`, the LC retention time stood at 16.5 min.
With `O=C(NCCNC(=O)c1ccccn1)c1ccccn1`, the LC retention time amounted to 8.71 min.
As for `CCc1cccc2ccn(Cc3ccccc3)c12`, the figure is 18.4 min.
Next, `O=C1c2ccccc2C(=O)c2cc(C(=O)N3CCC(c4ccccc4)CC3)ccc21`: 17 min.
As for `Cc1cc(C=O)c(C)n1C(C)C`, the figure is 11.1 min.
For `C[N+](C)(N)Cc1ccccc1`, the LC retention time is 7.54 min.
Next, `CC(C)c1ccc(N)cc1`: 9 min; `CCCCCCCCCCCCCCCCN`: 16.7 min.
